Measured values taken from patent US20240002846A1, “COMPOSITIONS AND METHODS FOR THE DIAGNOSIS AND TREATMENT OF ITCH” (Duke University, priority 2020, published 2024).

Molecular target: rTRPV4 (Rattus norvegicus, UniProt Q9ERZ8)
Assay: In vitro interaction (overlay) assay LPC-TRPV4
Assay type: binding
Parameters: made in house; host or cells: HEK293 cells, surface proteins isolated with Pierce Cell Surface Isolation kit
Details: 200 pmol per spot
Method: In vitro interaction assays of LPC-TRPV4. Surface proteins were obtained from HEK293 cells transiently expressing rTRPV4-EGFP channels using the Pierce Cell Surface Isolation kit (Pierce Biotechnology, Rockford, IL) following the manufacturer's instructions. Overlay assays were performed as previously described (Morales-Lazaro et al. Nat. Commun. 2016, 7, 13092). In brief, LPC 18:1 was spotted (200 pmol per spot) onto a nitrocellulose membrane (GE Healthcare, Pittsburgh, PA) and then blocked with 1% fatty acid-free BSA (Calbiochem) and 6% fat-free dried milk in PBS. Membranes were then incubated with the surface protein solutions and exposed to anti-GFP antibody (Sigma, St. Louis, MO) diluted 1:1000 in 3% fat-free dried milk in PBST (with 0.1% of Tween). Membranes were incubated with horseradish peroxidase-conjugated secondary anti-rabbit antibody (Cell Signaling Technology) diluted 1:7500 in 6% fat-free dried milk in PBST. The binding of rTRPV4-EGFP and TRPV4-R746D-EGFP to the lipid-containing spots was visualized by chemiluminescence by exposing the blot for 15 min (Amersham Bioscience, Piscataway, NJ). Semi-quantitative densitometric analysis was done using ImageJ (NIH) and expressed as relative protein levels of TRPV4 bound to each spot.

rTRPV4, sequence (Q9ERZ8 whole entry): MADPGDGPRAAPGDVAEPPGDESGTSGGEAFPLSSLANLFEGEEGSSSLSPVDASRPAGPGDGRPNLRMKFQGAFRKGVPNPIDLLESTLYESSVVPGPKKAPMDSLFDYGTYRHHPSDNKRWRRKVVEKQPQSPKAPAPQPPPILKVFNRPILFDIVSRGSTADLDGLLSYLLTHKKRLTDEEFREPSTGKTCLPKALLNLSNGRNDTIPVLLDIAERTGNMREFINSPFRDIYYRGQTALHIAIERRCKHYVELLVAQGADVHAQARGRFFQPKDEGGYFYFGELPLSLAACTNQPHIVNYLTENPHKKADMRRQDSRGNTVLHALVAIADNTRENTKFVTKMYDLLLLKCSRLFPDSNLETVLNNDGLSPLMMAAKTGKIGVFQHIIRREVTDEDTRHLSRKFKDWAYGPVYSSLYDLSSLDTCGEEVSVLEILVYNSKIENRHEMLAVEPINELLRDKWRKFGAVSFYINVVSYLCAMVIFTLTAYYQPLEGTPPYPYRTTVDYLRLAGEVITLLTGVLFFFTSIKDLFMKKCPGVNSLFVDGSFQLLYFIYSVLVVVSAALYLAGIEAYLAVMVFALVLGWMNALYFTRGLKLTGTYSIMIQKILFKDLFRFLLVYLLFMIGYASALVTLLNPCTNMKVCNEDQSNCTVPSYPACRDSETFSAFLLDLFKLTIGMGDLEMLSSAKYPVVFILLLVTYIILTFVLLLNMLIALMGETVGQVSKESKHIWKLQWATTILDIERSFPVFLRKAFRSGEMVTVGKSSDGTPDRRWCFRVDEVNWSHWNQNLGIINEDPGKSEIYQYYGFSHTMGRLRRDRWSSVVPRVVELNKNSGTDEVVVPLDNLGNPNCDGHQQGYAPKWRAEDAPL

LPC 18:1
binding of LPC 18:1 to rTRPV4: demonstrated binding
